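Five compound concentrations were applied to cells in 96-well plates for 48 hours; endpoints were derived by simple linear interpolation of the resulting dose-response curve. At the TGI there is no net growth.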
Legend:
Test in all cases: NCI tumour cell line growth inhibition, 48 h
[1] = tested on: 786-0 renal
[2] = tested on: A498 renal
[3] = tested on: A549 NSCLC
[4] = tested on: ACHN renal
[5] = tested on: CCRF-CEM leukemia
[6] = tested on: COLO 205 colon
[7] = tested on: DLD-1 colon
[8] = tested on: DMS 114 small cell lung
[9] = tested on: EKVX NSCLC
[10] = tested on: HCC-2998 colon
[11] = tested on: HCT-116 colon
[12] = tested on: HCT-15 colon
[13] = tested on: HL-60(TB) leukemia
[14] = tested on: HOP-18 NSCLC
[15] = tested on: HOP-62 NSCLC
[16] = tested on: HOP-92 NSCLC
[17] = tested on: HT29 colon
[18] = tested on: IGROV1 ovarian
[19] = tested on: K-562 leukemia
[20] = tested on: KM12 colon
[21] = tested on: KM20L2 colon
[22] = tested on: LOX IMVI melanoma
[23] = tested on: LXFL 529 NSCLC
[24] = tested on: M14 melanoma
[25] = tested on: M19-MEL melanoma
[26] = tested on: MALME-3M melanoma
[27] = tested on: MOLT-4 leukemia
[28] = tested on: NCI-H226 lung
[29] = tested on: NCI-H23 lung
[30] = tested on: NCI-H460 lung
[31] = tested on: NCI-H522 lung
[32] = tested on: OVCAR-3 ovarian
[33] = tested on: OVCAR-4 ovarian
[34] = tested on: OVCAR-5 ovarian
[35] = tested on: OVCAR-8 ovarian
[36] = tested on: RPMI-8226 leukemia
[37] = tested on: RXF 393 renal
[38] = tested on: RXF-631 renal
[39] = tested on: SF-268 CNS
[40] = tested on: SF-295 CNS
[41] = tested on: SF-539 CNS
[42] = tested on: SK-MEL-2 melanoma
[43] = tested on: SK-MEL-28 melanoma
[44] = tested on: SK-MEL-5 melanoma
[45] = tested on: SK-OV-3 ovarian
[46] = tested on: SN12C renal
[47] = tested on: SNB-19 CNS
[48] = tested on: SNB-75 CNS
[49] = tested on: SNB-78 CNS
[50] = tested on: SR leukemia
[51] = tested on: SW-620 colon
[52] = tested on: TK-10 renal
[53] = tested on: U251 CNS
[54] = tested on: UACC-257 melanoma
[55] = tested on: UACC-62 melanoma
[56] = tested on: UO-31 renal
[57] = tested on: XF 498 CNS
[58] = tested on: CAKI-1 renal
[59] = tested on: DMS 273 small cell lung
[60] = tested on: MCF7 breast
[61] = tested on: NCI/ADR-RES ovarian
[62] = tested on: P388 leukemia
[63] = tested on: P388/ADR leukemia
[64] = tested on: SN12K1 renal

## COC(=O)CCC(NC(=S)N/N=C(\C)c1cnccn1)C(=O)OC (configuration not stated)
[1]
  TGI: > 100 µM
[2]
  TGI: > 100 µM
[3]
  TGI: > 100 µM
[4]
  TGI: > 100 µM
[5]
  TGI: 58.1 µM
[6]
  TGI: > 100 µM
[7]
  TGI: > 100 µM
[8]
  TGI: 54.2 µM
[9]
  TGI: > 100 µM
[10]
  TGI: > 100 µM
[11]
  TGI: > 100 µM
[12]
  TGI: > 100 µM
[13]
  TGI: 38.6 µM
[14]
  TGI: > 100 µM
[15]
  TGI: > 100 µM
[16]
  TGI: > 100 µM
[17]
  TGI: > 100 µM
[18]
  TGI: > 100 µM
[19]
  TGI: > 100 µM
[20]
  TGI: > 100 µM
[21]
  TGI: > 100 µM
[22]
  TGI: > 100 µM
[23]
  TGI: > 100 µM
[24]
  TGI: > 100 µM
[25]
  TGI: > 100 µM
[26]
  TGI: > 100 µM
[27]
  TGI: 61 µM
[28]
  TGI: > 100 µM
[29]
  TGI: > 100 µM
[30]
  TGI: > 100 µM
[31]
  TGI: 84 µM
[32]
  TGI: > 100 µM
[33]
  TGI: > 100 µM
[34]
  TGI: 79.7 µM
[35]
  TGI: > 100 µM
[36]
  TGI: > 100 µM
[37]
  TGI: > 100 µM
[38]
  TGI: > 100 µM
[39]
  TGI: > 100 µM
[40]
  TGI: > 100 µM
[41]
  TGI: > 100 µM
[42]
  TGI: > 100 µM
[43]
  TGI: > 100 µM
[44]
  TGI: > 100 µM
[45]
  TGI: > 100 µM
[46]
  TGI: > 100 µM
[47]
  TGI: > 100 µM
[48]
  TGI: > 100 µM
[49]
  TGI: > 100 µM
[50]
  TGI: > 100 µM
[51]
  TGI: > 100 µM
[52]
  TGI: > 100 µM
[53]
  TGI: > 100 µM
[54]
  TGI: > 100 µM
[55]
  TGI: 90.2 µM
[56]
  TGI: > 100 µM
[57]
  TGI: > 100 µM

## c1ccc2cc3c(cc2c1)OP1(Oc2cccc4cccnc24)(O3)Oc2cc3ccccc3cc2O1
[2]
  TGI: 64.3 µM
[3]
  TGI: > 100 µM
[58]
  TGI: 20.6 µM
[5]
  TGI: > 100 µM
[6]
  TGI: > 100 µM
[7]
  TGI: > 100 µM
[8]
  TGI: > 23 µM
[59]
  TGI: 12.4 µM
[9]
  TGI: > 57.3 µM
[10]
  TGI: 27.2 µM
[11]
  TGI: > 100 µM
[12]
  TGI: > 100 µM
[13]
  TGI: 5.78 µM
[14]
  TGI: 56.3 µM
[15]
  TGI: > 73.3 µM
[16]
  TGI: 76.3 µM
[17]
  TGI: 12.6 µM
[18]
  TGI: > 100 µM
[19]
  TGI: > 40.3 µM
[20]
  TGI: 21.8 µM
[21]
  TGI: 20.3 µM
[22]
  TGI: 22.5 µM
[25]
  TGI: 38.1 µM
[26]
  TGI: > 76.8 µM
[60]
  TGI: > 100 µM
[28]
  TGI: 44.5 µM
[29]
  TGI: 16.9 µM
[30]
  TGI: 12.3 µM
[31]
  TGI: 35.4 µM
[61]
  TGI: 19.2 µM
[32]
  TGI: 5.45 µM
[33]
  TGI: 11.8 µM
[34]
  TGI: 45.6 µM
[35]
  TGI: > 57.1 µM
[62]
  TGI: 4.57 µM
[63]
  TGI: 6.73 µM
[37]
  TGI: > 100 µM
[39]
  TGI: > 100 µM
[40]
  TGI: > 58.9 µM
[41]
  TGI: 49.2 µM
[42]
  TGI: 79.6 µM
[43]
  TGI: > 100 µM
[44]
  TGI: 14.8 µM
[45]
  TGI: > 96.6 µM
[46]
  TGI: > 100 µM
[64]
  TGI: 20.5 µM
[47]
  TGI: > 100 µM
[48]
  TGI: 92.1 µM
[49]
  TGI: > 100 µM
[51]
  TGI: > 50.2 µM
[53]
  TGI: > 100 µM
[54]
  TGI: 8.94 µM
[55]
  TGI: 9.39 µM
[56]
  TGI: 20.1 µM
[57]
  TGI: 9.98 µM
